Consider 3 molecules from PubChem BioAssay (NCI).

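Assay format: 96-well plates, 48-hour exposure. Definition used: TGI = concentration required for complete inhibition of growth.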

Some test systems named below: EKVX NSCLC; U251 CNS; ACHN renal; M14 melanoma; SW-620 colon; COLO 205 colon; DU-145 prostate; HCT-15 colon; UACC-62 melanoma; OVCAR-8 ovarian.
Assay in all cases: inhibition of tumour cell growth, NCI panel, 48 h

Take `CN(CCc1ccccn1)C(=S)N/N=C(\c1ccccc1)c1ccccn1`: the TGI was 2 µM in the test on EKVX NSCLC; greater than 36.6 µM in the test with U251 CNS; 1.92 µM in the test on ACHN renal; 8.43 µM with M14 melanoma; 20.2 µM in the test on SW-620 colon; 17.3 µM with COLO 205 colon. Also, the TGI is 5.66 µM in the test on DU-145 prostate, 12.8 µM with HCT-15 colon, 2.04 µM in the test on UACC-62 melanoma and 1.56 µM with OVCAR-8 ovarian.

As for `C=C(Cl)C(Cl)(CCl)CCC(Br)C(C)(C)Br` (stereo not given), the TGI in the test on EKVX NSCLC, with U251 CNS, in the test with ACHN renal, in the test on M14 melanoma, in the test on SW-620 colon and with COLO 205 colon was greater than 10 µM each time. Further, the TGI in the test with DU-145 prostate, with HCT-15 colon, in the test with UACC-62 melanoma and in the test on OVCAR-8 ovarian was greater than 10 µM throughout.

`O=C1C(c2c(O)[nH]c3ccc(Br)cc23)=Nc2ccc(Br)cc21`: the TGI is greater than 100 µM in the test on EKVX NSCLC; 35 µM with U251 CNS; greater than 100 µM in the test on ACHN renal; greater than 100 µM in the test with M14 melanoma; greater than 100 µM in the test on SW-620 colon; greater than 100 µM in the test with COLO 205 colon. Besides, the TGI in the test on DU-145 prostate is 82.3 µM; in the test on HCT-15 colon, greater than 100 µM; in the test with UACC-62 melanoma, greater than 100 µM; in the test on OVCAR-8 ovarian it was 81.3 µM.
